This is an account of results in article PMC5357639 (Frontiers in Chemistry, 2017).

For orientation: AUC(0-inf) means total exposure, with the tail of the curve extrapolated. A higher AUC(0-inf) goes with more exposure. The Cmax is the peak of the concentration-time curve. What is called MRT is the average time that molecules of a dose stay in the body. What is called half-life is how long it takes for the measured level to halve. Higher therefore signals slow loss. In general, Kd refers to the free concentration of one partner at which half of the binding sites on the other are occupied at equilibrium, for simple one-to-one binding. Broadly, the MIC is the lowest concentration that inhibits growth of the organism.

SMILES strings stand for the structures. Where “and” joins values, the source holds several entries; their conditions need not be identical. Identical values can stand only once. Where a SMILES comes first, the peptide text is derived from it. The star is where a group is joined. Orn(α-tetramethylguanidino) = CN(C)C(=N[C@@H](CCCN)C(=O)*)N(C)C

A short description of one series: in vivo. Also on record: species or system NMRI mice. Conditions: mouse, ip; for C0: c0 (initial concentration at time point 0 min). The source says:
A protocol to quantify Api88, Api137, and their major metabolites was established analog to that of oncocin derivatives, reported recently (Schmidt et al., [2016]). Briefly, an Alliance® 2695 HPLC system was coupled online to an ESI-QqLIT-MS (4,000 QTRAP®) equipped with a TurboV™ ion-spray source and operated in positive ion MRM mode using the Analyst® 1.6 software. Separation was achieved on a Jupiter C18-column (internal diameter 1 mm, length 150 mm, particle size 5 μm, pore size 300 Å) at 55 °C using a linear 5-min gradient from 2.7 to 20.7% aqueous acetonitrile containing ammonium formate (26 mmol/L, pH 3.0). Further details about instrumentation, MRM optimization, and MS settings are provided as Supplementary Material (Tables S1–S4, Method M1).
Female NMRI mice (8–9 weeks, 25–35 g) were injected intraperitoneally (10 mL/kg) with peptides dissolved in sterile PBS (Gibco® Life Technologies™, Darmstadt, Germany) at concentrations of 0.5 or 2 g/L corresponding to doses of 5 or 20 mg/kg body weight, respectively. After 10, 20, 30, 60, or 90 min animals (n = 7) were euthanized by carbon dioxide inhalation and terminal bleeding via cardiac puncture. Lithium-heparin plasma (n = 7) was prepared and stored at −80°C. Immediately after the final bleed, mice were perfused through the left ventricle with saline (0.9%, 50 mL, ~3 min) to remove blood from all organs controlled by discoloration of the liver. Organs were removed aseptically and directly frozen in liquid nitrogen. Spontaneously released urine was collected and frozen immediately at −80°C.
Method M1: M ultiple reaction monitoring (MRM) transitions for apidaecin peptides Peptides (1 µ g/ m L ) were dissolved inaqueous acetonitrile (25% or 60% v/ v) containing either formate buffer (26 mmol/ L, pH 2.6, 3.0, 3.3 or 3.9 ) or formic acid (0.1% v/v ) and infused (flow rate 5 µ L/min, PHD 2600 s yringe pump) into the ES I-Q q L IT -MS (4000 QTRAP®) to optimize buffer composition and MRM. Transitions were selected from the tandem mass spectra (MS/MS) and confirmed on an ESI-QqTOF-MS (QSTAR® pulsar I) providing higher mass resolutions and mass accuracies than the QTRAP ®. The settings for declustering potential (DP), collision potential (CE), and collision cell exit potential (CXP) were optimized by ramping the respective pot entials using the compound optimization tool of the Anal yst® software.
Method M2: Sample preparation
Frozen organs (5 per group) wer e homogenized in sterile PBS (500 µ L) containing Protease Inhibitor Mix M (1% v/v; SERVA Electrophoresis GmbH, Heidelberg, German y) using an Ultra-Turr ax ® T25 basic (IKA-Werke, Staufen, German y, rotational speed 21,500 min-1) for 1 min. Homogenates were sonicated on ice (35% amplitude, mode: 5 s on; 5 s off for 1 min; Vibra-cell™ 75041, Thermo Fisher Scientific) to disrupt cells. After centrifugation (15 min, 21,460 x g, 4°C) the supernatants were stored at - 80°C.
Aliquots of plasma (10 µL) or liver (10 µ L), kidney (50 µ L), and brain hom ogenates (100 µ L) were spiked with isotope -labeled Api88, Api137, Api1- 16, and Api1- 17 (2.5 µ g/ m L). The samples were diluted fourfold with aqueous phosphoric acid (3.4% v/v), loaded on an Oasis H LB 9 6 -well solid phase extraction (SPE) plate (5 mg sorbent, Waters ), washed with aqueous methanol (0.3 m L, 5% v/ v), eluted with methanol (0.3 m L), and dried in a vacuum centrifuge (30 °C; SpeedVac, Eppendorf ). The samples were dissolved prior analysis in aqueous acetonitrile (3% v/v) containing formic acid (0.1 % v/v).
Stock solutions (1 g/L) of the peptides and their corresponding isotope-labelled internal standards were prepared and diluted in water. Calibration and validation mixtures (10 µL) of unlabeled (0.025, 0.1, 0.5 or 2.5 µg/m L) and isotope-labeled peptides ( 2.5 µ g/ m L ) w ere mix ed with plasma or organ homogenates (10 to 100 µL) obtained from untreated animals fo r […]
Limits of detection (LOD) and quantification (LOQ) corresponded to the lowest peptide […]

The target in the next series is 70S ribosomes. Conditions: binding to 70S ribosomes; ref Krizsan et al., 2014; cited from earlier work. The source says: Antimicrobial peptides (AMPs) are considered as promising alternatives to common antibiotics that threateningly lose their therapeutic potentials against multidrug-resistant pathogens (Fox, [2013]; Wang et al., [2015]). In contrast to approved therapeutic peptide hormones, antimicrobial peptides have to be administered at much higher doses, which may amplify general drawbacks of peptide therapeutics. For example, the diabetes peptide drugs exenatide and pramlintide are given at daily doses of 20 μg (Byetta®; ~0.5 μg/kg) and 120 μg (Symlin®; ~1.5 μg/kg; Heine et al., [2005]; Hay et al., [2015]) ...

A further series has as its system E. coli ATCC 25922. As to conditions: E. coli ATCC 25922; ref Czihal et al., 2012; Berthold et al., 2013; cited from earlier work. The source says: Antimicrobial peptides (AMPs) are considered as promising alternatives to common antibiotics that threateningly lose their therapeutic potentials against multidrug-resistant pathogens (Fox, [2013]; Wang et al., [2015]). In contrast to approved therapeutic peptide hormones, antimicrobial peptides have to be administered at much higher doses, which may amplify general drawbacks of peptide therapeutics. For example, the diabetes peptide drugs exenatide and pramlintide are given at daily doses of 20 μg (Byetta®; ~0.5 μg/kg) and 120 μg (Symlin®; ~1.5 μg/kg; Heine et al., [2005]; Hay et al., [2015]) ... || Apidaecin analogs Api88 and Api137 are similarly active against Gram-negative bacteria with a tendency of higher activity of Api88 against K. pneumoniae (Czihal et al., [2012]; Berthold et al., [2013]). However, Api88 carries a C-terminal amide that is responsible for its very fast proteolytic cleavage in serum, the supernatant obtained after complete coagulation and centrifugation of blood. The in vitro serum stability assay, which is an important in vitro criterion to select therapeutic peptides for systemic applications, yielded very short half-life times of 5 min for Api88, which indicate ...

In the series “in vivo” (female, NMRI, 5 mg/kg), `CC[C@H](C)[C@H](NC(=O)[C@H](Cc1ccc(O)cc1)NC(=O)[C@@H](NC(=O)[C@@H]1CCCN1C(=O)[C@H](CCCNC(=N)N)NC(=O)[C@H](CC(N)=O)NC(=O)[C@H](CC(N)=O)NC(=O)[C@H](CCCN)N=C(N(C)C)N(C)C)C(C)C)C(=O)N1CCC[C@H]1C(=O)N[C@@H](CCCNC(=N)N)C(=O)N1CCC[C@H]1C(=O)N[C@@H](CCCNC(=N)N)C(=O)N1CCC[C@H]1C(=O)N1CCC[C@H]1C(=O)N[C@@H](Cc1c[nH]cn1)C(=O)N1CCC[C@H]1C(=O)N[C@@H](CCCNC(=N)N)C(=O)N[C@@H](CC(C)C)C(N)=O` [Api88] ({Orn(α-tetramethylguanidino)}-NNRPVYIPRPRPPHPRL-NH2) showed an AUC(0-inf) of 355 ng·h/mL, a Cmax of 600 ng/mL, a mean residence time MRT of 30.5 min and a clearance of 6.4 mL/min. In “in vivo” (female, NMRI, 5 mg/kg), the half-life was determined as 17.3 min and the C0 worked out at 1000 ng/mL. In the series “in vivo” (female, NMRI, 20 mg/kg), this molecule gave an AUC(0-inf) of 1900 ng·h/mL, a Cmax of 4100 ng/mL, a mean residence time MRT of 23.9 min and a clearance of 5.4 mL/min. The same molecule returned a half-life in “in vivo” (female, NMRI, 20 mg/kg) of 11.1 min. For the same molecule, the “Time within which peptide is cleared” value in the series “in vivo” is on record as ~ 90 min. In “in vivo” (5 mg/kg), the “AUMC0 → ∞” value was 650 μg^*min^2*mL^−^1, the Detection in plasma result is on record as “undetectable”, the Volume of distribution is 137 mL and the “c0 (initial concentration at time point 0 min)” value worked out at 1 µg/mL. Also, the “k (elimination constant)” value in “in vivo” (5 mg/kg) was 0.040 min^−^1. In addition, in “in vivo” (20 mg/kg), the “AUMC0 → ∞” value is listed as 2730 μg^*min^2*mL^−^1, the Volume of distribution is 100 mL, the “c0 (initial concentration at time point 0 min)” value was 6.2 µg/mL and the “k (elimination constant)” value is 0.062 min^−^1. For the same molecule, the Kd on 70S ribosomes was 1200 nM. The MIC in the series with E. coli ATCC 25922 is given as ~ 4 μg/mL.

In the case of `CC[C@H](C)[C@H](NC(=O)[C@H](Cc1ccc(O)cc1)NC(=O)[C@@H](NC(=O)[C@@H]1CCCN1C(=O)[C@H](CCCNC(=N)N)NC(=O)[C@H](CC(N)=O)NC(=O)[C@H](CC(N)=O)NC(=O)[C@H](CCCN)N=C(N(C)C)N(C)C)C(C)C)C(=O)N1CCC[C@H]1C(=O)N[C@@H](CCCNC(=N)N)C(=O)N1CCC[C@H]1C(=O)N[C@@H](CCCNC(=N)N)C(=O)N1CCC[C@H]1C(=O)N1CCC[C@H]1C(=O)N[C@@H](Cc1c[nH]cn1)C(=O)N1CCC[C@H]1C(=O)N[C@@H](CCCNC(=N)N)C(=O)N[C@@H](CC(C)C)C(=O)O` [Api137] ({Orn(α-tetramethylguanidino)}-NNRPVYIPRPRPPHPRL-OH), in “in vivo” (female, NMRI, 5 mg/kg), the area under the curve AUC(0-inf) was 160 ng·h/mL, the concentration peaked (Cmax) at 200 ng/mL, the mean residence time MRT is 54.9 min and the “c0 (initial concentration at time point 0 min)” value was found to be 0.22 µg/mL. Moreover, in the series “in vivo” (female, NMRI, 5 mg/kg), the clearance was determined as 15.1 mL/min, the half-life came to 33.8 min and the C0 turned out to be 200 ng/mL. In “in vivo” (female, NMRI, 20 mg/kg), this molecule gave an area under the curve AUC(0-inf) of 1200 ng·h/mL, a Cmax of 3600 ng/mL, a mean residence time (MRT) of 21 min and a clearance of 8.4 mL/min. Further, the half-life in “in vivo” (female, NMRI, 20 mg/kg) was determined as 16.9 min. Further, the “Time within which peptide is cleared” value in the series “in vivo” is given as ~ 90 min. In the series “in vivo” (5 mg/kg), the “AUMC0 → ∞” value came out at 1512 μg^*min^2*mL^−^1, the Detection in plasma result was “still detected”, the Volume of distribution was determined as 659 mL and the “k (elimination constant)” value amounted to 0.020 min^−^1. Also, in the series “in vivo” (20 mg/kg), the “AUMC0 → ∞” value came out at 524 μg^*min^2*mL^−^1, the Volume of distribution was 77 mL, the “c0 (initial concentration at time point 0 min)” value is 7.8 µg/mL and the “k (elimination constant)” value worked out at 0.041 min^−^1. Further, the “t1/2 (elimination half life time)” value in “in vivo” (20 mg/kg) is recorded as 17 min. The Kd on 70S ribosomes is 560 nM. The minimal inhibitory concentration (MIC) in the series on E. coli ATCC 25922 was 4 μg/mL and ~ 4 μg/mL.
